In ChEMBL document CHEMBL3885861, “Open TG-GATES”:

Species: Rattus norvegicus
Test: Open TG-GATES - Regimen: Single
Format: toxicity, organism-based, Sprague-Dawley
Set-up: regimen Single, gender Male, age 6 weeks
Details: in vivo, po, 1000 mg/kg, route gavage, dose level High; for APTT / Bas / Eos / Fbg / Hb / Ht / Lym / MCH / MCHC / MCV / Mono / Neu / PT / Plat / RBC / Ret / WBC: tissue Blood; for KIDNEY_L / KIDNEY_R / KIDNEY_TOTAL: tissue Kidney; for LIVER: tissue Liver; for A/G / ALP / ALT / AST / BUN / CRE / Ca / Cl / DBIL / GLC / IP / K / LDH / Na / PL / RALB / TBIL / TC / TG / TP / gamma-GTP: tissue Plasma

SMILES: CC(=O)Nc1ccc2c(c1)Cc1ccccc1-2 [2-ACETYLAMINOFLUORENE]
- TERMINAL_BW (3 h): 222.5 g
- APTT (3 h): 20.1 s
- Bas (3 h): 0.6%
- Eos (3 h): 1%
- Fbg (3 h): 233.2 mg/dL
- Hb (3 h): 14.2 g/dL
- Ht (3 h): 41%
- Lym (3 h): 73%
- MCH (3 h): 21.9 pg
- MCHC (3 h): 34.7%
- MCV (3 h): 63.3 fL
- Mono (3 h): 3%
- Neu (3 h): 21.6%
- PT (3 h): 12 s
- Plat (3 h): 122.7 x10_4/uL
- RBC (3 h): 648.8 x10_4/ul
- Ret (3 h): 7.5%
- WBC (3 h): 60.1 x10_2/uL
- KIDNEY_L (3 h): 1 g
- KIDNEY_R (3 h): 1 g
- KIDNEY_TOTAL (3 h): 2 g
- LIVER (3 h): 10.4 g
- A/G (3 h): 1.6
- ALP (3 h): 850.2 IU/L
- ALT (3 h): 41.4 IU/L
- AST (3 h): 84 IU/L
- BUN (3 h): 12.4 mg/dL
- CRE (3 h): 0.5 mg/dL
- Ca (3 h): 10.9 mg/dL
- Cl (3 h): 102.4 meq/L
- DBIL (3 h): 0.078 mg/dL
- GLC (3 h): 218.8 mg/dL
- IP (3 h): 10.5 mg/dL
- K (3 h): 3.8 meq/L
- LDH (3 h): 209.6 IU/L
- Na (3 h): 140.8 meq/L
- PL (3 h): 151.6 mg/dL
- RALB (3 h): 3.6 g/dL
- TBIL (3 h): 0.1 mg/dL
- TC (3 h): 87.4 mg/dL
- TG (3 h): 68.8 mg/dL
- TP (3 h): 5.9 g/dL
- gamma-GTP (3 h): 1.2 IU/L
- TERMINAL_BW (6 h): 215.7 g
- APTT (6 h): 19.6 s
- Bas (6 h): 0.8%
- Eos (6 h): 1.2%
- Fbg (6 h): 227.2 mg/dL
- Hb (6 h): 14.4 g/dL
- Ht (6 h): 41.6%
- Lym (6 h): 73.6%
- MCH (6 h): 21.9 pg
- MCHC (6 h): 34.6%
- MCV (6 h): 63.4 fL
- Mono (6 h): 1.8%
- Neu (6 h): 22.8%
- PT (6 h): 12.9 s
- Plat (6 h): 126.1 x10_4/uL
- RBC (6 h): 656.8 x10_4/ul
- Ret (6 h): 7.5%
- WBC (6 h): 35.4 x10_2/uL
- KIDNEY_L (6 h): 0.9 g
- KIDNEY_R (6 h): 0.9 g
- KIDNEY_TOTAL (6 h): 1.8 g
- LIVER (6 h): 9.7 g
- A/G (6 h): 1.7
- ALP (6 h): 1010.2 IU/L
- ALT (6 h): 37.4 IU/L
- AST (6 h): 72.6 IU/L
- BUN (6 h): 14.4 mg/dL
- CRE (6 h): 0.5 mg/dL
- Ca (6 h): 10.7 mg/dL
- Cl (6 h): 102 meq/L
- DBIL (6 h): 0.074 mg/dL
- GLC (6 h): 251.2 mg/dL
- IP (6 h): 9.7 mg/dL
- K (6 h): 4 meq/L
- LDH (6 h): 228.6 IU/L
- Na (6 h): 140.6 meq/L
- PL (6 h): 133.6 mg/dL
- RALB (6 h): 3.6 g/dL
- TBIL (6 h): 0.1 mg/dL
- TC (6 h): 83.8 mg/dL
- TG (6 h): 26.6 mg/dL
- TP (6 h): 5.8 g/dL
- gamma-GTP (6 h): 1.4 IU/L
- TERMINAL_BW (9 h): 214.2 g
- APTT (9 h): 18.7 s
- Bas (9 h): 0.6%
- Eos (9 h): 0.6%
- Fbg (9 h): 252.4 mg/dL
- Hb (9 h): 14.8 g/dL
- Ht (9 h): 42.6%
- Lym (9 h): 68.8%
- MCH (9 h): 22 pg
- MCHC (9 h): 34.7%
- MCV (9 h): 63.3 fL
- Mono (9 h): 3.6%
- Neu (9 h): 25%
- PT (9 h): 13.1 s
- Plat (9 h): 130.1 x10_4/uL
- RBC (9 h): 673.2 x10_4/ul
- Ret (9 h): 7.4%
- WBC (9 h): 46.2 x10_2/uL
- KIDNEY_L (9 h): 1 g
- KIDNEY_R (9 h): 0.9 g
- KIDNEY_TOTAL (9 h): 1.9 g
- LIVER (9 h): 10.4 g
- A/G (9 h): 1.5
- ALP (9 h): 751.4 IU/L
- ALT (9 h): 33 IU/L
- AST (9 h): 64.8 IU/L
- BUN (9 h): 13.4 mg/dL
- CRE (9 h): 0.5 mg/dL
- Ca (9 h): 11.1 mg/dL
- Cl (9 h): 104.6 meq/L
- DBIL (9 h): 0.066 mg/dL
- GLC (9 h): 225.4 mg/dL
- IP (9 h): 9.7 mg/dL
- K (9 h): 4.2 meq/L
- LDH (9 h): 196.8 IU/L
- Na (9 h): 141.4 meq/L
- PL (9 h): 160.4 mg/dL
- RALB (9 h): 3.6 g/dL
- TBIL (9 h): 0.1 mg/dL
- TC (9 h): 90 mg/dL
- TG (9 h): 34.4 mg/dL
- TP (9 h): 6 g/dL
- gamma-GTP (9 h): 1 IU/L
- TERMINAL_BW (24 h): 212.5 g
- APTT (24 h): 20.3 s
- Bas (24 h): 0.4%
- Eos (24 h): 0.8%
- Fbg (24 h): 209.6 mg/dL
- Hb (24 h): 14.7 g/dL
- Ht (24 h): 42.1%
- Lym (24 h): 67.2%
- MCH (24 h): 21.8 pg
- MCHC (24 h): 35%
- MCV (24 h): 62.3 fL
- Mono (24 h): 2.8%
- Neu (24 h): 28%
- PT (24 h): 15 s
- Plat (24 h): 140.3 x10_4/uL
- RBC (24 h): 675.8 x10_4/ul
- Ret (24 h): 7%
- WBC (24 h): 79.6 x10_2/uL
- KIDNEY_L (24 h): 1 g
- KIDNEY_R (24 h): 1 g
- KIDNEY_TOTAL (24 h): 1.9 g
- LIVER (24 h): 9.7 g
- A/G (24 h): 1.6
- ALP (24 h): 787.8 IU/L
- ALT (24 h): 32.4 IU/L
- AST (24 h): 78.8 IU/L
- BUN (24 h): 11.6 mg/dL
- CRE (24 h): 0.6 mg/dL
- Ca (24 h): 10 mg/dL
- Cl (24 h): 105 meq/L
- DBIL (24 h): 0.1 mg/dL
- GLC (24 h): 190.6 mg/dL
- IP (24 h): 8.7 mg/dL
- K (24 h): 4.2 meq/L
- LDH (24 h): 252.4 IU/L
- Na (24 h): 140.8 meq/L
- PL (24 h): 116.8 mg/dL
- RALB (24 h): 3.3 g/dL
- TBIL (24 h): 0.2 mg/dL
- TC (24 h): 59.6 mg/dL
- TG (24 h): 67.4 mg/dL
- TP (24 h): 5.3 g/dL
- gamma-GTP (24 h): 1.2 IU/L
